Tests used:
in vitro = conditions: human, mock-infected H1-HeLa cells
ECHO 11 = assay: Anti-echoviral cell culture assay (XTT), ECHO 11 in MRC-5 cells; assay type: cell-based, echovirus 11; conditions: Enterovirus B, MRC5, 96 h; ECHO-11, MRC-5 cells, four days
Experimental: (§1) Echovirus type 11 (ECHO 11) was purchased from ATCC (Rockville, Md.). Virus stocks were propagated and antiviral assays were performed in MRC-5 cells (ATCC).

[1] = target: T1, recombinant rhinovirus 3C protease, serotype 14 (Human rhinovirus 14, UniProt P03303); assay: Inhibition of rhinovirus 3C protease (FRET assay), serotype 14; assay type: biochemical
T1 construct: Recombinant rhinovirus 3C proteases; made in house
Experimental: (§2) Stock solutions (50 mM, in DMSO) of various compounds were prepared; dilutions were in the same solvent. Recombinant rhinovirus 3C proteases (see Birch et al., “Purification of recombinant human rhinovirus 14 3C protease expressed in Escherichia coli,” Protein Expr. Pur. (1995), vol. 6(5), 609-618) from serotypes 14, 16, and 2 were prepared by the following standard chromatographic procedures: (1) ion exchange using Q Sepharose Fast Flow from Pharmacia; (2) affinity chromatography using Affi-Gel Blue from Biorad; and (3) sizing using Sephadex G-100 from Pharmacia. Each assay sample contained 2% DMSO, 50 mM tris pH 7.6, 1 mM EDTA, a test compound at the indicated concentration, approximately 1 μM substrate, and 50-100 nM protease. The kobs/I values were obtained from reactions initiated by addition of enzyme rather than substrate. RVP activity was measured in the fluorescence resonance energy transfer assay. The substrate was (N-terminal) DABCYL-([…]-EDANS. In the uncleaved peptide, the EDANS fluorescence was quenched by the proximal DABCYL moiety. When the peptide was cleaved, the quenching was relieved, and activity was measured as an increase in fluorescence signal. The tabulated data in the column designated kobs/[I] were measured from progress curves in enzyme start experiments.

HRV-14 = assay: Antirhinoviral H1-HeLa cell culture assay (XTT), HRV-14; assay type: cell-based, human rhinovirus; conditions: Rhinovirus B, HRV14, HRV-14, H1-HeLa cells
HRV-1A = assay: Antirhinoviral H1-HeLa cell culture assay (XTT), HRV-1A; assay type: cell-based, human rhinovirus; conditions: Rhinovirus A, HRV1A, H1-HeLa cells
From the text: (§3) (1989), vol. 81, 577-586.

[2] = Cytotoxicity in uninfected MRC-5 cells (anti-echoviral assay, XTT); assay type: cell-based; conditions: human, ECHO-11 row
Experimental: as §1

[3] = Cytotoxicity in uninfected H1-HeLa cells (anticoxsackieviral assay, XTT); assay type: cell-based; conditions: human
CAV-21 = assay: Anticoxsackieviral cell culture assay (XTT), CAV-21; assay type: cell-based, coxsackievirus A21; conditions: Enterovirus C, 48 h; CAV-21, H1-HeLa cells, m.o.i. 0.025, two days
CVB3 = assay: Anticoxsackieviral cell culture assay (XTT), CVB3; assay type: cell-based, coxsackievirus B3; conditions: Enterovirus B, 24 h; CVB3, H1-HeLa cells, m.o.i. 0.075, one day
HRV-10 = assay: Antirhinoviral H1-HeLa cell culture assay (XTT), HRV-10; assay type: cell-based; conditions: Human rhinovirus sp., HRV10, HRV-10, H1-HeLa cells
From the text: as §3

H1-HeLa cells = assay: Cytotoxicity in mock-infected H1-HeLa cells (antirhinoviral assay, XTT); conditions: HRV-89 row
[4] = target: T2, rhinovirus 3C protease, HRV-89 (Human rhinovirus A serotype 89, UniProt P07210); assay: Inhibition of rhinovirus 3C protease (FRET assay), serotype 89; assay type: biochemical, human rhinovirus 89; conditions: HRV-89 3C protease
T2 construct: Recombinant rhinovirus 3C proteases

HRV-89 = assay: Antirhinoviral H1-HeLa cell culture assay (XTT), HRV-89; assay type: cell-based, human rhinovirus; conditions: Rhinovirus A, HRV89, HRV-89, H1-HeLa cells
From the text: as §3

[5] = target: T3, recombinant rhinovirus 3C protease, serotype 16 (Human rhinovirus 16, UniProt Q82122); assay: Inhibition of rhinovirus 3C protease (FRET assay), serotype 16; assay type: biochemical; conditions: HRV-16 3C protease
T3 construct: Recombinant rhinovirus 3C proteases; made in house
Experimental: as §2

[6] = target: T4, recombinant rhinovirus 3C protease, serotype 2 (Human rhinovirus 2, UniProt P04936); assay: Inhibition of rhinovirus 3C protease (FRET assay), serotype 2; assay type: biochemical; conditions: HRV-2 3C protease
T4 construct: Recombinant rhinovirus 3C proteases; made in house
Experimental: as §2

T1 sequence (P03303 1538-1719): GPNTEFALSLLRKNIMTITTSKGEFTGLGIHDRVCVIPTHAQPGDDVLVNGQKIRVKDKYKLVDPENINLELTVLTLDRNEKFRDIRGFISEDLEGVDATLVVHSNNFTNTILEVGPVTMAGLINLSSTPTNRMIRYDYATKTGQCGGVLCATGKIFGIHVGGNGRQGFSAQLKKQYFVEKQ
T3 sequence (Q82122 1511-1693): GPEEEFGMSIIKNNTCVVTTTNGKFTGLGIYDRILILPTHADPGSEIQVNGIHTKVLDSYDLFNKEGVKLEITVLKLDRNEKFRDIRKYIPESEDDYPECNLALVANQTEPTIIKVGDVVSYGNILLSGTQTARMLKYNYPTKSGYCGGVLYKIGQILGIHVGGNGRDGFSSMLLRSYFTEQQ
T2 sequence (P07210 1522-1704): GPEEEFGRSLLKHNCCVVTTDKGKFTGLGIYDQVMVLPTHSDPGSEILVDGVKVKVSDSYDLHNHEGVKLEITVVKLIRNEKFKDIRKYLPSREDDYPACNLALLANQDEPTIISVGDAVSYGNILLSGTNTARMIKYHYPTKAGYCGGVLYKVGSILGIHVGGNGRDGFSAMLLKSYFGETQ
T4 sequence (P04936 1508-1690): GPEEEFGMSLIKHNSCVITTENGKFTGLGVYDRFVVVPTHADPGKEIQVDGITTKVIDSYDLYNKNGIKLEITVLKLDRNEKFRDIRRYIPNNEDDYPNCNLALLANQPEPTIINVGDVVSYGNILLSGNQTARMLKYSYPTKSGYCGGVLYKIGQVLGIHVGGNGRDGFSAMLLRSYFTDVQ

Compound | CC50 at 2 days (in vitro) [nM] | EC50 (ECHO 11) [nM] | Ki [1] [nM] | EC50 (HRV-14) [nM] | EC50 (HRV-1A) [nM] | CC50 at 4 days [2] [nM] | CC50 at 2 days ([3]; CAV-21) [nM] | CC50 at 1 day ([3]; CVB3) [nM] | EC50 (CAV-21) [nM] | EC50 (CVB3) [nM] | EC50 (HRV-10) [nM] | CC50 (H1-HeLa cells) [nM] | Ki [4] [nM] | EC50 (HRV-89) [nM] | Ki [5] [nM] | Ki [6] [nM]
Cc1cc(C(=O)N[C@H](C(=O)N[C@@H](Cc2ccc(F)cc2)C(=O)N[C@@H](C[C@@H]2CCNC2=O)C(=O)c2nc3ccccc3s2)C(C)C)no1 [Compound 28, (5-Methylisoxazole-3-carboxyl)-L-Val-L-Phe(4-F)-L-[(S)-Pyrrol-Ala]-2-Benzthiazole] | 251000 | 821 | 4.5 | 335 | 337 | 251000 | 251000 | 251000 | 4670 | 5790 | 253 | – | – | – | – | –
C#CC(=O)[C@H](CNC(C)=O)NC(=O)[C@H](Cc1ccccc1)NC(=O)[C@H](CC(C)C)NC(=O)OCc1ccccc1 [Compound 14, Cbz-L-Leu-L-Phe-L-(N-Ac-amino-Ala)-C≡CH] | > 100000 | – | 65 | > 100000 | – | – | – | – | – | – | – | > 100000 | 760 | > 100000 | 322 | 124
